Read-outs that look alike come from different tables or passages of the source.
Tested on: SSRI-resistant outpatients with major depressive disorder (MDD)
Conditions: for CGI-S Mean score reduction / HDRS-17 % Remission / HDRS-17 % Response / HDRS-17 Mean score reduction / QIDS-SR % Remission / QIDS-SR % Response / QIDS-SR Mean score reduction: 15 mg/day adjunct to an SSRI
Description: Using the sequential parallel design […] For those randomly assigned to the placebo/placebo sequence, both responders and non-responders to placebo during the first phase (n=25) remain on placebo during the second phase. […] Data from the previous double-blind, placebo-controlled study (Trial 1) can be pooled into the instant study (Trial 2) to provide a more accurate estimate of the placebo effect size, with a weighted average from the two Phases 1 (one from Trial 1 and one from Trial 2) and two Phases 2 (one from Trial 1 and one from Trial 2).
All patients are asked to take one tablet of blinded study medication in the morning, in addition to their stable dose of ongoing SSRI treatment. […] Therefore, for patients randomly assigned to the placebo/placebo sequence, the tablets of study medication are placebo during both phases of the study.
The primary efficacy measure can include the change in 17-item Hamilton Rating Scale for Depression (HAM-D-17) score. […] A remission is, for example, defined as a HAM-D-17 score less than 8 at endpoint. Secondary measures of efficacy can include change in CGI-severity, with “clinical response defined” as CGI-S of 1 or 2 at endpoint. Patients with a CGI-I score greater than 5 at any post baseline visit or a 50 percent or greater worsening of depressive symptoms from baseline to that visit are discontinued from the study. Subjects are also discontinued from the study with any emergence of suicidality, homicidality, mania, or psychosis. Additional exemplary instruments that can be administered according to the study schedule include the following: • (1) Structured Clinical Interview for DSM-IV: The SCID-I/P, administered by the clinician, proceeds by modules to diagnose the different Axis I disorders. Questions are asked exactly as written, and each is based on the individual criteria from DSM-IV. Answers are generally rated on a scale of 1-3 (1=doubtful, 2=probable, 3=definite), and, based on the number of positive answers, a diagnosis is determined by a clinician. While the entire SCID-I/P is administered at screen, the mood module is administered at each follow up visit. • (2) The MGH Antidepressant Treatment History Questionnaire (MGH-ATR): The MGH-ATR provides specific criteria for the adequate dose and adequate length of a trial for it to be considered a failure, thus allowing clinicians to systematically collect data aimed at assessing the degree of treatment-resistance of the current major depressive episode. • (3) The 28-item Hamilton Depression Scale (HAM-D-28): This version allows scoring of the HAM-D-17, 21-, 25-, and 28-item scales. This instrument is completed by the clinician by using a structured interview and defined anchor points, and aims to quantify the degree of depression over the past 7 days. The HAM-D is the most widely studied instrument for depression, and its reliability and validity are high. • (4) Clinical Global Impressions—Severity and Improvement (CGI-S, CGI-I): These two instruments are scored 1-7 by the clinician based on assessment of the patient's clinical status. They measure, based on history and scores on other instruments: a) Depressive severity (CGI-S) and b) Clinical Improvement (CGI-I). […] Safety Measurements
Data are entered and error-checked at each clinical site involved in the study. Study staff and subjects may have the option to enter self-evaluations into the system directly using DatStat Illume™. The process of data entry is supervised by the DCRP staff. Once the data set is entered and checked, analyses are conducted. Both a completer analysis of all patients finishing the trial and an intent-to-treat analysis examining all patients enrolled into the trial are used to define the severity of depression at endpoint. Examination of both study completers and all patients randomized can provide the broadest assessment of the effects of treatment in trials of such kind.

[1] = SSRI + 15 mg/day versus SSRI + placebo, after 30 days

## CN1c2c(nc(N)[nH]c2=O)NC[C@@H]1CNc1ccc(C(=O)N[C@@H](CCC(=O)O)C(=O)O)cc1 [6(S)-5-MTHF, 6(S)-5-methyltetrahydrofolate]
Phase 1
  CGI-S Mean score reduction: −1.3
  HDRS-17 % Remission: 15.7%
  HDRS-17 % Response: 36.8%
  HDRS-17 Mean score reduction: −7.5
  QIDS-SR % Remission: 21.0%
  QIDS-SR % Response: 36.8%
  QIDS-SR Mean score reduction: −8.1
Phase 2
  CGI-S Mean score reduction: −0.5
  HDRS-17 % Remission: 11.1%
  HDRS-17 % Response: 27.7%
  HDRS-17 Mean score reduction: −3.8
  QIDS-SR % Remission: 5.5%
  QIDS-SR % Response: 11.1%
  QIDS-SR Mean score reduction: −1.3
Pooled Phases 1 and 2
  CGI-S Mean score reduction: −0.92
  HDRS-17 % Remission: 13.4%
  HDRS-17 % Response: 32.3%
  HDRS-17 Mean score reduction: −5.58
  QIDS-SR % Remission: 13.3%
  QIDS-SR % Response: 23.9%
  QIDS-SR Mean score reduction: −4.7
[1]
  degree of improvement (HAM-D-17, QIDS-SR, CGI-S): greater degree of reduction in the scores of HAM-D-17, QIDS-SR and CGI-S
  percentage of remitters (HAM-D-17 or QIDS-SR): no significant difference
  percentage of responders (50% or greater reduction in HAM-D-17): response rate is higher for the 6(S)-5-MTHF group than the placebo group

Source: patent publication US9546401B2, “Assays and methods for selecting a treatment regimen for a subject with depression” (The General Hospital Corporation, priority 2011, dated 2017)
